In patent US12559529B2, “NPY2 receptor agonists” (Boehringer Ingelheim International GmbH, priority 2019, dated 2026):
*1 amine or outer side, *2 acyl side, *3 side chain or, on linkers, in order; H or OH if unused. Where a SMILES comes first, the peptide text is derived from it. Side-chain parts run from the residue outwards. The star is where a group is joined. C18 diacid = O=C(O)CCCCCCCCCCCCCCCCC(=O)*; γGlu = O=C(O)[C@H](CCC(=O)[*:2])N[*:1]; Isovaleryl = CC(C)CC(=O)*; AEEA = NCCOCCOCC(=O)O

molecular target: T1, Human Neuropeptide Y2 Receptor (Homo sapiens, UniProt P49146); assay: Radioligand binding competition assay (RLB); conditions: Table 3; human 125I-PYY (1-36) 0.02 nM, Y2 receptor membranes; read-out: Ki
T1 construct: purchased CHEMICON HTS066M
T1 sequence (P49146 1-381): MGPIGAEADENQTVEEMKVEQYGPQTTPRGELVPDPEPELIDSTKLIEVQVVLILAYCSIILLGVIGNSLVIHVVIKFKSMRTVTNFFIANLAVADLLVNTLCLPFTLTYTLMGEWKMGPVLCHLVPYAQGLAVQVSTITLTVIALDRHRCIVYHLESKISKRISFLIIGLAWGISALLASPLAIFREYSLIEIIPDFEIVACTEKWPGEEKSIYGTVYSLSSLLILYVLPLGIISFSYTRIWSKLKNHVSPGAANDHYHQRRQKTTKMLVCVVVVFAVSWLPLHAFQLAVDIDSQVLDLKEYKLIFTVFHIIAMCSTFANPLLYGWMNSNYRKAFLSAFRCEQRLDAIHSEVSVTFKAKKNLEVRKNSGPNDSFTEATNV
Summary of the method: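 Competition binding at commercial human NPY Y2 membrane preparations, 0.5 μg protein per well, 2 h incubation at room temperature. Bound and free ligand were separated on GF/C filters and counted; IC50 was fitted by nonlinear regression.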

| Structure (SMILES) | Ki |
| --- | --- |
| CC[C@H](C)[C@H](NC(=O)[C@H](CCC(=O)O)NC(=O)[C@H](CCC(=O)O)NC(=O)[C@@H]1CCCN1C(=O)[C@H](CO)NC(=O)[C@H](C)NC(=O)[C@H](CC(=O)O)NC(=O)[C@H](CCC(=O)O)NC(=O)[C@H](CCC(=O)O)NC(=O)[C@H](C)NC(=O)[C@H](CCCCNC(=O)COCCOCCNC(=O)COCCOCCNC(=O)CC[C@H](NC(=O)CCCCCCCCCCCCCCCCC(=O)O)C(=O)O)NC(=O)[C@H](CCC(=O)O)NC(=O)[C@@H]1CCCN1C(=O)[C@H](C)NC(=O)CC(C)C)C(=O)N[C@@H](CCC(N)=O)C(=O)N[C@@H](CCCNC(=N)N)C(=O)N[C@@H](Cc1ccc(O)cc1)C(=O)N[C@@H](Cc1ccc(O)cc1)C(=O)N[C@H](C(=O)N[C@@H](CO)C(=O)N[C@@H](CC(C)C)C(=O)N[C@@H](CCCNC(=N)N)C(=O)N[C@@H](Cc1c[nH]cn1)C(=O)N[C@@H](Cc1ccc(O)cc1)C(=O)N[C@@H](Cc1ccc(O)cc1)C(=O)N[C@@H](CC(N)=O)C(=O)N[C@@H](Cc1c[nH]c2ccccc12)C(=O)N[C@@H](CC(C)C)C(=O)N[C@H](C(=O)N[C@@H](CCCNC(=N)N)C(=O)N[C@@H](CCC(N)=O)C(=O)N[C@@H](CCCNC(=N)N)C(=O)N[C@@H](Cc1ccc(O)cc1)C(N)=O)[C@@H](C)O)C(C)C [Compound 152, N{alpha-4}-(3-methylbutanoyl)-N{epsilon-7}-[2-(2-{2-[2-(2-{2-[(4S)-4-carboxy-4-(17-carboxyheptadecanamido)butanamido]ethoxy}ethoxy)acetamido]ethoxy}ethoxy)acetamido]-[4A,7K,8A,9E,17I,18Q,22V,28Y,30W,31L]hPYY (4-36)] | 5.18 nM |
| CC(C)CC(=O)N[C@@H](C)C(=O)N1CCC[C@H]1C(=O)N[C@@H](CCC(=O)O)C(=O)N[C@@H](CCCCNC(=O)COCCOCCNC(=O)COCCOCCNC(=O)CC[C@H](NC(=O)CCCCCCCCCCCCCCCCC(=O)O)C(=O)O)C(=O)N1CCC[C@H]1C(=O)N[C@@H](CCC(=O)O)C(=O)N[C@@H](CCC(=O)O)C(=O)N[C@@H](CC(=O)O)C(=O)N[C@@H](C)C(=O)N[C@@H](CO)C(=O)N1CCC[C@H]1C(=O)N[C@@H](CCC(=O)O)C(=O)N[C@@H](CCC(=O)O)C(=O)N[C@H](C(=O)N[C@@H](CCC(N)=O)C(=O)N[C@@H](CCCNC(=N)N)C(=O)N[C@@H](Cc1ccc(O)cc1)C(=O)N[C@@H](Cc1ccc(O)cc1)C(=O)N[C@H](C(=O)N[C@@H](CO)C(=O)N[C@@H](CC(C)C)C(=O)N[C@@H](CCCNC(=N)N)C(=O)N[C@@H](Cc1c[nH]cn1)C(=O)N[C@@H](Cc1ccc(O)cc1)C(=O)N[C@@H](Cc1ccc(O)cc1)C(=O)N[C@@H](CC(N)=O)C(=O)N[C@@H](Cc1c[nH]c2ccccc12)C(=O)N[C@@H](CC(C)C)C(=O)N[C@H](C(=O)N[C@@H](CCCNC(=N)N)C(=O)N[C@@H](CCC(N)=O)C(=O)N[C@@H](CCCNC(=N)N)C(=O)N[C@@H](Cc1ccc(O)cc1)C(N)=O)[C@@H](C)O)C(C)C)[C@@H](C)O [Compound 155, N{alpha-4}-(3-methylbutanoyl)-N{epsilon-7}-[2-(2-{2-[2-(2-{2-[(4S)-4-carboxy-4-(17-carboxyheptadecanamido)butanamido]ethoxy}ethoxy)acetamido]ethoxy}ethoxy)acetamido]-[4A,7K,9E,17T,18Q,22V,28Y,30W,31L]hPYY (4-36)] | 2.05 nM |

The next lines start with the values.

| Ki | Structure (SMILES) |
| --- | --- |
| 2.75 nM | CC(C)CC(=O)N[C@@H](C)C(=O)N1CCC[C@H]1C(=O)N[C@@H](CCC(=O)O)C(=O)N[C@@H](CCCCNC(=O)COCCOCCNC(=O)COCCOCCNC(=O)CC[C@H](NC(=O)CCCCCCCCCCCCCCCCC(=O)O)C(=O)O)C(=O)N1CCC[C@H]1C(=O)N[C@@H](CCC(=O)O)C(=O)N[C@@H](CCC(=O)O)C(=O)N[C@@H](C)C(=O)N[C@@H](C)C(=O)N[C@@H](CO)C(=O)N1CCC[C@H]1C(=O)N[C@@H](CCC(=O)O)C(=O)N[C@@H](CCC(=O)O)C(=O)N[C@@H](CC(C)C)C(=O)N[C@@H](CCC(N)=O)C(=O)N[C@@H](CCCNC(=N)N)C(=O)N[C@@H](Cc1ccc(O)cc1)C(=O)N[C@@H](Cc1ccc(O)cc1)C(=O)N[C@H](C(=O)N[C@@H](CCC(=O)O)C(=O)N[C@@H](CC(C)C)C(=O)N[C@@H](CCCNC(=N)N)C(=O)N[C@@H](Cc1c[nH]cn1)C(=O)N[C@@H](Cc1ccc(O)cc1)C(=O)N[C@@H](Cc1ccc(O)cc1)C(=O)N[C@@H](CC(N)=O)C(=O)N[C@@H](Cc1c[nH]c2ccccc12)C(=O)N[C@@H](CC(C)C)C(=O)N[C@H](C(=O)N[C@@H](CCCNC(=N)N)C(=O)N[C@@H](CCC(N)=O)C(=O)N[C@@H](CCCNC(=N)N)C(=O)N[C@@H](Cc1ccc(O)cc1)C(N)=O)[C@@H](C)O)C(C)C [Compound 149, N{alpha-4}-(3-methylbutanoyl)-N{epsilon-7}-[2-(2-{2-[2-(2-{2-[(4S)-4-carboxy-4-(17-carboxyheptadecanamido)butanamido]ethoxy}ethoxy)acetamido]ethoxy}ethoxy)acetamido]-[4A,7K,9E,11A,18Q,22V,23E,28Y,30W,31L]hPYY (4-36)] |
| 14.4 nM | CC(C)CC(=O)N[C@@H](C)C(=O)N1CCC[C@H]1C(=O)N[C@@H](CCC(=O)O)C(=O)N[C@@H](CCCCNC(=O)COCCOCCNC(=O)COCCOCCNC(=O)CC[C@H](NC(=O)CCCCCCCCCCCCCCCCC(=O)O)C(=O)O)C(=O)N[C@H](C(=O)N[C@@H](CCC(=O)O)C(=O)N[C@@H](CCC(=O)O)C(=O)N[C@@H](CCC(=O)O)C(=O)N[C@@H](C)C(=O)N[C@@H](CO)C(=O)N1CCC[C@H]1C(=O)N[C@@H](CCC(=O)O)C(=O)N[C@@H](CCC(=O)O)C(=O)N[C@@H](CC(C)C)C(=O)N[C@@H](CCC(N)=O)C(=O)N[C@@H](CCCNC(=N)N)C(=O)N[C@@H](Cc1ccc(O)cc1)C(=O)N[C@@H](Cc1ccc(O)cc1)C(=O)N[C@H](C(=O)N[C@@H](CO)C(=O)N[C@@H](CC(C)C)C(=O)N[C@@H](CCCNC(=N)N)C(=O)N[C@@H](Cc1c[nH]cn1)C(=O)N[C@@H](Cc1ccc(O)cc1)C(=O)N[C@@H](Cc1ccc(O)cc1)C(=O)N[C@@H](CC(N)=O)C(=O)N[C@@H](Cc1c[nH]c2ccccc12)C(=O)N[C@@H](CC(C)C)C(=O)N[C@H](C(=O)N[C@@H](CCCNC(=N)N)C(=O)N[C@@H](CCC(N)=O)C(=O)N[C@@H](CCCNC(=N)N)C(=O)N[C@@H](Cc1ccc(O)cc1)C(N)=O)[C@@H](C)O)C(C)C)C(C)C [Compound 153, N{alpha-4}-(3-methylbutanoyl)-N{epsilon-7}-[2-(2-{2-[2-(2-{2-[(4S)-4-carboxy-4-(17-carboxyheptadecanamido)butanamido]ethoxy}ethoxy)acetamido]ethoxy}ethoxy)acetamido]-[4A,7K,8V,9E,11E,18Q,22V,28Y,30W,31L]hPYY (4-36)] (Isovaleryl-APEK([AEEA-AEEA-γGlu-C18 diacid])VEEEASPEELQRYYVSLRHYYNWLTRQRY-NH2) |
| 4.43 nM | CC(C)CC(=O)N[C@@H](C)C(=O)N1CCC[C@H]1C(=O)N[C@@H](CCC(=O)O)C(=O)N[C@@H](CCCCNC(=O)COCCOCCNC(=O)COCCOCCNC(=O)CC[C@H](NC(=O)CCCCCCCCCCCCCCCCC(=O)O)C(=O)O)C(=O)N1CCC[C@H]1C(=O)N[C@@H](CCC(=O)O)C(=O)N[C@@H](CCC(=O)O)C(=O)N[C@@H](CC(=O)O)C(=O)N[C@@H](C)C(=O)N[C@@H](CO)C(=O)N1CCC[C@H]1C(=O)N[C@@H](CCC(=O)O)C(=O)N[C@@H](CCC(=O)O)C(=O)N[C@@H](CC(C)C)C(=O)N[C@@H](CCC(N)=O)C(=O)N[C@@H](CCCNC(=N)N)C(=O)N[C@@H](Cc1ccc(O)cc1)C(=O)N[C@@H](Cc1ccc(O)cc1)C(=O)N[C@H](C(=O)N[C@@H](CO)C(=O)N[C@@H](CC(C)C)C(=O)N[C@@H](CCCNC(=N)N)C(=O)N[C@@H](Cc1c[nH]cn1)C(=O)N[C@@H](Cc1ccc(O)cc1)C(=O)N[C@@H](Cc1c[nH]c2ccccc12)C(=O)N[C@@H](CC(N)=O)C(=O)N[C@@H](Cc1ccc(O)cc1)C(=O)N[C@@H](CC(C)C)C(=O)N[C@H](C(=O)N[C@@H](CCCNC(=N)N)C(=O)N[C@@H](CCC(N)=O)C(=O)N[C@@H](CCCNC(=N)N)C(=O)N[C@@H](Cc1ccc(O)cc1)C(N)=O)[C@@H](C)O)C(C)C [Compound 158, N{alpha-4}-(3-methylbutanoyl)-N{epsilon-7}-[2-(2-{2-[2-(2-{2-[(4S)-4-carboxy-4-(17-carboxyheptadecanamido)butanamido]ethoxy}ethoxy)acetamido]ethoxy}ethoxy)acetamido]-[4A,7K,9E,18Q,22V,28W,30Y,31L]hPYY (4-36)] (Isovaleryl-APEK([AEEA-AEEA-γGlu-C18 diacid])PEEDASPEELQRYYVSLRHYWNYLTRQRY-NH2) |
